“Also recorded” adds a separate entry of the source. Like-named read-outs stand apart in the source and are kept apart here.
Legend:
[1] = Action on the hydro-mineral metabolism: sodium excretion, 96 hours treatment; format: in vivo, rat (Wistar, male); details: for Sodium excreted, average ± standard error: 96 hours treatment, 5 h urine
Source text: The action on the hydro-mineral metabolism was examined by means of a test, the principle of which is as follows:
The gluco-corticoids are not all free from mineral-corticoid effects (for example hydro-cortisone). These latter are indicated by:
A reduced renal elimination of sodium (sodium retention);
a loss of potassium (potassium leakage), these two effects reproducing the action of aldosteron.
This study has been carried out on male Wistar rats having weights between 180 and 190 grams.
The animals were distributed at random in groups of ten.
The products under study were administered by the oral route in suspension in 5 % gum arabic. The animals of the reference group received the same volume of vehicle under the same conditions.
The treatments were carried out daily for 4 days.
The renal functional exploratory test was effected […] after the first administration of the product tested.
Eighteen hours before the test, the animals were completely deprived of food and water, this being subsequently maintained up to the end of the test.
Immediately before the renal functional test, the animals received an overdose by the oral route of physiological solution equal to 5 % by volume of their body weight.
The urine passed during five hours was collected for each animal in a polyethylene tube.
The concentration of sodium was determined in each sample by flame photometry; the total quantitt excreted was then calculated as a function of the corresponding volume of urine. The values obtained for each group were then compared following the Fisher Student method with the quantity of sodium excreted by the animals of the reference group.
The results obtained with hydro-cortisone acetate and the JO 1016 in the case of a treatment lasting 96 hours following the procedure (f) are indicated in the following Table XVI.

[2] = system: liver, kidneys, spleen, thymus, stomach; format: in vivo, rat (Sprague-Dawley); details: strong dose (436 mg/kg s.c. daily), male rat; study broken off on the 14th day
thymus = format: in vivo, rat (Wistar, young male)
Description: The thymolytic effects have been examined by means of a test, the principle of which is as follows:
The repeated administration of a gluco-corticoid having a systemic activity causes an involution of the defence system of the organism, of which two organs belong to the reticulo-endothelial system, the spleen and the thymus, this latter being the most sensitive to this action, especially with young animals. The thymic involution is estimated by weighing.
The various products were injected daily by the oral or the sub-cutaneous route for four days, to young male rats of Wistar-strain, the initial weight of which was between 45 and 55 grams, distributed at random by groups of ten.
The products under study were administered at a volume of 0.2 ml. per animal for both methods, in suspension in:
Carboxy-methyl-cellulose at 5 % for sub-cutaneous injection;
Gum arabic at 5 % for the oral route.
The animals of the reference groups received the same volume of the corresponding vehicle.
Ninety-six hours after the first administration, the animals were killed, the thymus glands being taken and weighed immediately.
For each animal, the weight of the thymus has been brought to 100 grams of body weight. The thymolytic activity of the products under study was then expressed as a percentage of regression of the thymus with respect to the animals of the reference group and the ED50 of each product tested was estimated by transferring the percentage inhibition obtained for each dose on semi-logarithmic paper.

[3] = system: adrenal glands, gonads, seminal vesicles, uterine tubes; assay: Action on the endocrine glands and the genital tractus: organ weights and histology, long-term treatment; format: in vivo, rat (Sprague-Dawley); details: for Ovaries weight / Seminal vesicles weight / Testicles weight / Uterine tubes weight / Adrenal glands weight: 4 weeks, N.S.
Source text: (§1) The action on the endocrine glands and the genital tractus, and a possible ulcerogenic effect were investigated, together with the effects on the glucidic and proteic metabolisms, on the hydro-mineral equilibrium after long-term administration.
The repeated administration of corticoids may result in an inhibition of the secretion of the ante-hypophysiary hormone which is shown by a lowering of the effectiveness of the target-glands (example: adrenal-glandes) and indirectly of certain organs which are under the dependence of a hormone secretion (example: genital tractus).
(§2) These studies have been carried out for some of the products according to the invention after sub-chronic administration.
(§3) There were utilized groups of 10 male rats and ten female rats of Sprague-Dawley S.P.F. strain which have been given the products under study by sub-cateneous methods daily for four weeks.
(§4) The products were administered in suspension in 5 % carboxy-methyl-cellulose under a volume of 0.5 ml. per 100 grams of body weight, in three different doses, the animals of the reference lot receiving the same volume of the vehicle alone.
(§5) At the end of this study there were extracted:
(2) the gonads (testicles or ovaries);
(3) the seminal vesicles or the uterine tubes;
(§6) The samples numbered (1), (2) and (3) were immediately weighed. All the samples were then fixed for histological examination in the Bouin-Holland fixator.
(§7) During the course of the long-term study, the JO 1016 was administered daily to the male and female rats in doses of 100 mg/kg, 250 mg/kg, 500 mg/kg by the sub-cutaneous route.
After a long-term treatment by the JO 1016, following the procedure (h), the average weights of the following organs: adrenal glandes, gonads, seminal vesicles, uterine tubes are indicated in the following Table XXII

[4] = system: liver, kidneys, spleen, thymus, stomach; format: in vivo, rat (Sprague-Dawley); details: 4 weeks
Source text: as §1
The principle of the tests employed is as follows.
The ulcer-producing action of certain corticoids, after repeated administration is well known, but the mechanism of this action still remains doubtful.
as §2, §3, §4, §5, §6, §7

[5] = Hydro-mineral equilibrium: sodium excretion after 4 weeks treatment; format: in vivo, rat (Sprague-Dawley); details: male rat, 500 mg/kg s.c.
Description: as §1, §3, §4
(§8) In order to confirm certain previous results of the pharmacological short-term study, there has furthermore been determined, for each lot of animals:
(§9) at the end of the treatment:
the sodium excretion in 5 hours
as §7

[6] = Glycemia after 4 weeks treatment; format: in vivo, rat (Sprague-Dawley)
Description: as §1, §3, §4, §8, §9, §7
The following Tables XIV and XV indicate the results of the proportions of glycemia with the reference animals and animals treated for 4 weeks following the procedure (h)

## CC(=O)OCC(=O)[C@@]1(O)CC[C@H]2[C@@H]3CCC4=CC(=O)CC[C@]4(C)[C@H]3[C@@H](O)C[C@@]21C [Hydrocortisone (acetate), Hydrocortisone acetate, reference compound]
[1]; 16 mg/kg oral
  Sodium excreted, average ± standard error: 0,371 ± 0,0827 Meq
[2]
  Mortality: high mortality observed with the strong dose
thymus; rat, in vivo, 5760 min
  ED50 thymolytic activity, sub-cutaneous route: 0.68 mg
thymus; rat, in vivo, po, 5760 min
  ED50 thymolytic activity, oral route: 4 mg

## CC(C)(C)C(=O)SCC(=O)[C@@]1(O)CC[C@H]2[C@@H]3CCC4=CC(=O)CC[C@]4(C)[C@H]3[C@@H](O)C[C@@]21C [JO 1016, Dihydroxy-11β, 17α thio-21 dioxo-3,20 pregnene-4-21 pivalate]
[3]; 100 mg/kg s.c.
  Ovaries weight: 38.4 mg
  Seminal vesicles weight: 328.0 mg
  Testicles weight: 1.143 g
  Uterine tubes weight: 211.8 mg
[3]; 250 mg/kg s.c.
  Ovaries weight: 38.3 mg
  Seminal vesicles weight: 296.0 mg
  Testicles weight: 1.144 g
  Uterine tubes weight: 184.7 mg
[3]; 500 mg/kg s.c.
  Ovaries weight: 39.3 mg
  Seminal vesicles weight: 274.6 mg
  Testicles weight: 1.207 g
  Uterine tubes weight: 165.4 mg
[3]; female rats, 100 mg/kg s.c.
  Adrenal glands weight: 26.7 mg
[3]; female rats, 250 mg/kg s.c.
  Adrenal glands weight: 24,5 mg
[3]; female rats, 500 mg/kg s.c.
  Adrenal glands weight: 27,0 mg
[3]; long-term s.c. treatment
  Histological examination of organs: has not furthermore brought into evidence any alteration of their structure; also recorded: neither atrophy nor surrenal hypertrophy; also recorded: nor modification of the functional aspect of the male and female genital organs
[3]; male rats, 100 mg/kg s.c.
  Adrenal glands weight: 14.9 mg
[3]; male rats, 250 mg/kg s.c.
  Adrenal glands weight: 12,3 mg
[3]; male rats, 500 mg/kg s.c.
  Adrenal glands weight: 13.5 mg
[1]; 16 mg/kg oral
  Sodium excreted, average ± standard error: 0.820 ± 0.1040 Meq
[1]; 16 mg/kg oral, 96 hours, hydrocortisone acetate 0,001 < p < 0,01, JO 1016 N.S.
  Sodium excreted, percentage of variation: 0,4%
[1]; 32 mg/kg oral
  Sodium excreted, average ± standard error: 0.754 ± 0.0465 Meq
[1]; 80 mg/kg oral
  Sodium excreted, average ± standard error: 0.684 ± 0.1591 Meq
[1]; 160 mg/kg oral
  Sodium excreted, average ± standard error: 0.664 ± 0.0484 Meq
[4]; 250 mg/kg s.c. daily
  Kidneys: presence of abscess (cases): 0/10
  Liver: presence of abscess (cases): 0/10
  Spleen: atrophied (cases): 0/10
  Stomach: ulcerated (cases): 0/10
  Stomach: ulcerated and infected (cases): 0/10
  Thymus: atrophied (cases): 0/10
[4]; 500 mg/kg s.c. daily
  Kidneys: presence of abscess (cases): 0/10
  Liver: presence of abscess (cases): 0/10
  Spleen: atrophied (cases): 0/10
  Stomach: ulcerated (cases): 0/10
  Stomach: ulcerated and infected (cases): 0/10
  Thymus: atrophied (cases): 0/10
[5]
  Sodium excreted, average ± standard error: 1,41 ± 0,116 Meq
[6]; female, 500 mg/kg s.c.
  Glycemia, average ± standard error: 1,10 ± 0,04 g/liter
[6]; male, 100 mg/kg s.c.
  Glycemia, average ± standard error: 1.2 ± 0.04 g/L
[6]; male, 250 mg/kg s.c.
  Glycemia, average ± standard error: 1.2 ± 0.05 g/L
[6]; male, 500 mg/kg s.c.
  Glycemia, percentage of variation and probabilities: N.S.
thymus; oral, total dose administered during four days per rat of about 50 g
  ED50 thymolytic activity, oral route: 400 mg
thymus; sub-cutaneous, total dose administered during four days per rat of about 50 g
  ED50 thymolytic activity, sub-cutaneous route: > 120 mg

Reference: patent publication US4014909A, “Esters of 21-thiol steroids” (priority 1974, dated 1977)
